Reference: ChEMBL document CHEMBL4507286 (2021)

How the values were obtained:
[1] = target: NUAK family SNF1-like kinase 1 (Homo sapiens) (UniProt O60285)
[2] = target: Aurora kinase C (Homo sapiens) (UniProt Q9UQB9)
[3] = target: BMP-2-inducible protein kinase (Homo sapiens) (UniProt Q9NSY1)
[4] = tested on: Serine/threonine-protein kinase B-raf (Homo sapiens), P15056 [V600E]
[5] = target: Calcium/calmodulin-dependent protein kinase type 1 (Homo sapiens) (UniProt Q14012)
[6] = target: Calcium/calmodulin-dependent protein kinase kinase 1 (Homo sapiens) (UniProt Q8N5S9)
[7] = target: Cyclin-dependent kinase 11A (Homo sapiens) (UniProt Q9UQ88)
[8] = target: Serine/threonine-protein kinase Chk1 (Homo sapiens) (UniProt O14757)
[9] = target: Citron Rho-interacting kinase (Homo sapiens) (UniProt O14578)
[10] = target: Death-associated protein kinase 1 (Homo sapiens) (UniProt P53355)
[11] = target: Serine/threonine-protein kinase DCLK1 (Homo sapiens) (UniProt O15075)
[12] = target: Serine/threonine-protein kinase DCLK2 (Homo sapiens) (UniProt Q8N568)
[13] = target: Epithelial discoidin domain-containing receptor 1 (Homo sapiens) (UniProt Q08345)
[14] = tested on: Epidermal growth factor receptor (Homo sapiens), P00533 [UNDEFINED MUTATION]
[15] = tested on: Epidermal growth factor receptor (Homo sapiens), P00533 [L861Q]
[16] = tested on: Fibroblast growth factor receptor 3 (Homo sapiens), P22607 [G697C]
[17] = target: G protein-coupled receptor kinase 3 (Homo sapiens) (UniProt P35626)
[18] = target: Rhodopsin kinase GRK7 (Homo sapiens) (UniProt Q8WTQ7)
[19] = target: Homeodomain-interacting protein kinase 4 (Homo sapiens) (UniProt Q8NE63)
[20] = target: Hormonally up-regulated neu tumor-associated kinase (Homo sapiens) (UniProt P57058)
[21] = target: Serine/threonine-protein kinase LATS1 (Homo sapiens) (UniProt O95835)
[22] = target: Tyrosine-protein kinase Lck (Homo sapiens) (UniProt P06239)
[23] = target: Mitogen-activated protein kinase kinase kinase 1 (Homo sapiens) (UniProt Q13233)
[24] = target: Hepatocyte growth factor receptor (Homo sapiens) (UniProt P08581)
[25] = target: Dual specificity mitogen-activated protein kinase kinase 7 (Homo sapiens) (UniProt O14733)
[26] = target: Mitogen-activated protein kinase kinase kinase 10 (Homo sapiens) (UniProt Q02779)
[27] = target: Macrophage-stimulating protein receptor (Homo sapiens) (UniProt Q04912)
[28] = target: Serine/threonine-protein kinase 3 (Homo sapiens) (UniProt Q13188)
[29] = target: Mitogen-activated protein kinase kinase kinase 14 (Homo sapiens) (UniProt Q99558)
[30] = target: Cyclin-dependent kinase 16 (Homo sapiens) (UniProt Q00536)
[31] = target: Cyclin-dependent kinase 17 (Homo sapiens) (UniProt Q00537)
[32] = tested on: Phosphatidylinositol 4,5-bisphosphate 3-kinase catalytic subunit alpha isoform (Homo sapiens), P42336 [E545A]
[33] = tested on: Phosphatidylinositol 4,5-bisphosphate 3-kinase catalytic subunit alpha isoform (Homo sapiens), P42336 [Q546K]
[34] = target: Serine/threonine-protein kinase pim-3 (Homo sapiens) (UniProt Q86V86)
[35] = target: Phosphatidylinositol 5-phosphate 4-kinase type-2 gamma (Homo sapiens) (UniProt Q8TBX8)
[36] = target: Serine/threonine-protein kinase N1 (Homo sapiens) (UniProt Q16512)
[37] = target: Protein kinase C eta type (Homo sapiens) (UniProt P24723)
[38] = target: Ribosomal protein S6 kinase alpha-3 (Homo sapiens) (UniProt P51812)
[39] = target: Ribosomal protein S6 kinase beta-1 (Homo sapiens) (UniProt P23443)
[40] = target: Serine/threonine-protein kinase SBK1 (Homo sapiens) (UniProt Q52WX2)
[41] = target: Serine/threonine-protein kinase Sgk1 (Homo sapiens) (UniProt O00141)
[42] = target: Dual specificity testis-specific protein kinase 1 (Homo sapiens) (UniProt Q15569)
[43] = target: Vascular endothelial growth factor receptor 2 (Homo sapiens) (UniProt P35968)
[44] = target: D(3) dopamine receptor (Homo sapiens) (UniProt P35462); conditions: Compound concentration 10.0 uM
[45] = target: Alpha-2A adrenergic receptor (Homo sapiens) (UniProt P08913); conditions: Compound concentration 10.0 uM
[46] = Compound concentration 1000.0 nM
[47] = Compound concentration 100.0 nM

Cyclin-dependent kinase 11A (Homo sapiens), sequence (Q9UQ88 whole entry): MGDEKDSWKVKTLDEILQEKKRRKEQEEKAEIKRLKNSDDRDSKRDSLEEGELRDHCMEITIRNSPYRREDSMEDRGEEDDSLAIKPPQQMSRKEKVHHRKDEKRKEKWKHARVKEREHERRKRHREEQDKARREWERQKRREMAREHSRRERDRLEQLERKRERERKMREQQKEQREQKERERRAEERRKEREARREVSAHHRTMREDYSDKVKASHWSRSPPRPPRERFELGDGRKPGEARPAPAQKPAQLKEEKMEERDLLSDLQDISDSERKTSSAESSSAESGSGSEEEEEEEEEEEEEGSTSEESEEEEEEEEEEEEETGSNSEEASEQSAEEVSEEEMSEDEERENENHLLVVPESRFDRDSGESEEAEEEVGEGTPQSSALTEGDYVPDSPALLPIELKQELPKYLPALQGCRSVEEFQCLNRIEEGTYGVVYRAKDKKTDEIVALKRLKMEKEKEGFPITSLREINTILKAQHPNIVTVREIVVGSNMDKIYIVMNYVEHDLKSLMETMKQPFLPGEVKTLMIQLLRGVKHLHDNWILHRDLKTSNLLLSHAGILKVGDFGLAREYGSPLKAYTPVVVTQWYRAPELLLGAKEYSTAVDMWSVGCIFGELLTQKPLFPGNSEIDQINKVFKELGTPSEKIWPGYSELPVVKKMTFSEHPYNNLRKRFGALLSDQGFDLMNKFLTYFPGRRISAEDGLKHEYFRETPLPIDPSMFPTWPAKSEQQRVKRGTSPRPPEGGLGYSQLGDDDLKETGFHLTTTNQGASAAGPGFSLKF
Serine/threonine-protein kinase 3 (Homo sapiens), sequence (Q13188 whole entry): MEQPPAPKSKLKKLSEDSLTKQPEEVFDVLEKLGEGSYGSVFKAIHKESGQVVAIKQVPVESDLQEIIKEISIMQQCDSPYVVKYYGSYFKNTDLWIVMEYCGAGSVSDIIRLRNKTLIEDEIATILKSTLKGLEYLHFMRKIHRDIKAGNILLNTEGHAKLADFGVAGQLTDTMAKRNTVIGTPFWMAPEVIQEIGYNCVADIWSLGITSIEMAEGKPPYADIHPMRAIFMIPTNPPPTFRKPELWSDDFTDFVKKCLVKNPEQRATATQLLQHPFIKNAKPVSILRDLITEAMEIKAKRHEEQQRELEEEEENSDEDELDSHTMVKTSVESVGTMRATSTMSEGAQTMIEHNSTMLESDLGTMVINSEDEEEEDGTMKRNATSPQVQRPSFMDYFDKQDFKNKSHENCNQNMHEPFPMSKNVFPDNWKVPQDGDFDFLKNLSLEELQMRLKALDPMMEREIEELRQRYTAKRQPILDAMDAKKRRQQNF
NUAK family SNF1-like kinase 1 (Homo sapiens), sequence (O60285 whole entry): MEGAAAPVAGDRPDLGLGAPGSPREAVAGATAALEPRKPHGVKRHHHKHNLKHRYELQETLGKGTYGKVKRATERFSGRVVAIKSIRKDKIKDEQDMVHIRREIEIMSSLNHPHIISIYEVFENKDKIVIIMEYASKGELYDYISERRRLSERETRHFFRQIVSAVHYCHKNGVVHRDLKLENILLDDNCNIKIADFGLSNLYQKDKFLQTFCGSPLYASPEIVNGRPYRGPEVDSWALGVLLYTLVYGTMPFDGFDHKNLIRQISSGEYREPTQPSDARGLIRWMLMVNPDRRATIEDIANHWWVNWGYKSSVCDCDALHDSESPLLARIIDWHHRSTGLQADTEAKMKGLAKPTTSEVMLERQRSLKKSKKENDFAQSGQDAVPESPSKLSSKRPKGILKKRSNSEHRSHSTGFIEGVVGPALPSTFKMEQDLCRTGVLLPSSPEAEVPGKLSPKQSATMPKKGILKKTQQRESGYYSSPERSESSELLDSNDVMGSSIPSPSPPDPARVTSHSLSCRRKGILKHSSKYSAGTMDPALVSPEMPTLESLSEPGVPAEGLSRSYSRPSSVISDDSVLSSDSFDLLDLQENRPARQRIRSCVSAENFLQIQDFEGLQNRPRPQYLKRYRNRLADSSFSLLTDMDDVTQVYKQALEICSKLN
Serine/threonine-protein kinase B-raf (Homo sapiens), P15056 [V600E], sequence (P15056 whole entry V600E): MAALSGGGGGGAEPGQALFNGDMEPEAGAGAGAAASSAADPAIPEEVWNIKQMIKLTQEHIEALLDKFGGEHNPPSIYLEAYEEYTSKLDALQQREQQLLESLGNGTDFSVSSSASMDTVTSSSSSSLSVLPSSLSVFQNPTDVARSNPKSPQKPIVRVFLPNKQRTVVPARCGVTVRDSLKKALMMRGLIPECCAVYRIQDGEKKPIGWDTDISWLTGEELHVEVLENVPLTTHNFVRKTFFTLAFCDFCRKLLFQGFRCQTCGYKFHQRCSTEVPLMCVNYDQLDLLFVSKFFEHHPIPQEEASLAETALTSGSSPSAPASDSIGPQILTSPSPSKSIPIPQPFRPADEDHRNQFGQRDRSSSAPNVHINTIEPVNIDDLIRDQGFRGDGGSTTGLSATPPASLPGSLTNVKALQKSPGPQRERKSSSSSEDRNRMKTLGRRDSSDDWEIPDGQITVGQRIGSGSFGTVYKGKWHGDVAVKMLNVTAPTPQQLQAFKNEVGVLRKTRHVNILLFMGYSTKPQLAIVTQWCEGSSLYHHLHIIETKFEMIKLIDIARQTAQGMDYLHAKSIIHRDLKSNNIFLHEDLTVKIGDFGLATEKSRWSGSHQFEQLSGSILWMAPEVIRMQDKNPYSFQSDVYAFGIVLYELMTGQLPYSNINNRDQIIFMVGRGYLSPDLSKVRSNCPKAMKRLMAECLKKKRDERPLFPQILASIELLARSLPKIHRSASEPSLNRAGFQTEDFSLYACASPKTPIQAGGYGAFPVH
G protein-coupled receptor kinase 3 (Homo sapiens), sequence (P35626 whole entry): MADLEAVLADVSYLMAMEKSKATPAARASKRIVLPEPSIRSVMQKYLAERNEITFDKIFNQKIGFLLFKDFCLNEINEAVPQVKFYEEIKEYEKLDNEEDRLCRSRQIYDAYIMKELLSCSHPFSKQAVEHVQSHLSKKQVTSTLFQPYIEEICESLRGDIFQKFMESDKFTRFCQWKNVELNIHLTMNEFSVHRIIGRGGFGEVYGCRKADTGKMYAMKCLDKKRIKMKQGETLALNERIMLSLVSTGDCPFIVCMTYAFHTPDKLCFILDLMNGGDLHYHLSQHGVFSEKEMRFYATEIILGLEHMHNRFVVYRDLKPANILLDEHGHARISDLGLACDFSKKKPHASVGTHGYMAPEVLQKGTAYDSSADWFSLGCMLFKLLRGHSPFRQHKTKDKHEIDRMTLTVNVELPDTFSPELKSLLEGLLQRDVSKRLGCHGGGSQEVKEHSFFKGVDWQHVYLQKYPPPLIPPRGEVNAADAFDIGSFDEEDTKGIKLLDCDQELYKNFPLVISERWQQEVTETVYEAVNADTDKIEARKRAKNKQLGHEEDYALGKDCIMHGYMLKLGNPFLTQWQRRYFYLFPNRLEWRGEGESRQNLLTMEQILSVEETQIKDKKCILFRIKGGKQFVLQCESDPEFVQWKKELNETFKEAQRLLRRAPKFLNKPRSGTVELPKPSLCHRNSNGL
Dual specificity mitogen-activated protein kinase kinase 7 (Homo sapiens), sequence (O14733 whole entry): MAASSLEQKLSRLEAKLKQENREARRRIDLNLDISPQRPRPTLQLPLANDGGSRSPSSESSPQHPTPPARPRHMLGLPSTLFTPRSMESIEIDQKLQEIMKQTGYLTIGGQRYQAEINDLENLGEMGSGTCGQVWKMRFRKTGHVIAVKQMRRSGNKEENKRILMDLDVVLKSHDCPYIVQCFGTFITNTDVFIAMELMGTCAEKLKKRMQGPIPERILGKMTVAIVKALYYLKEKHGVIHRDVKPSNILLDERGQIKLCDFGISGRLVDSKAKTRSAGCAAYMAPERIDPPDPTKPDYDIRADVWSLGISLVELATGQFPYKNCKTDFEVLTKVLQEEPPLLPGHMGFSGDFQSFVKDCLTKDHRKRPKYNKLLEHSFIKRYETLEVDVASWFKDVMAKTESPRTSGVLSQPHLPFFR
Serine/threonine-protein kinase DCLK1 (Homo sapiens), sequence (O15075 whole entry): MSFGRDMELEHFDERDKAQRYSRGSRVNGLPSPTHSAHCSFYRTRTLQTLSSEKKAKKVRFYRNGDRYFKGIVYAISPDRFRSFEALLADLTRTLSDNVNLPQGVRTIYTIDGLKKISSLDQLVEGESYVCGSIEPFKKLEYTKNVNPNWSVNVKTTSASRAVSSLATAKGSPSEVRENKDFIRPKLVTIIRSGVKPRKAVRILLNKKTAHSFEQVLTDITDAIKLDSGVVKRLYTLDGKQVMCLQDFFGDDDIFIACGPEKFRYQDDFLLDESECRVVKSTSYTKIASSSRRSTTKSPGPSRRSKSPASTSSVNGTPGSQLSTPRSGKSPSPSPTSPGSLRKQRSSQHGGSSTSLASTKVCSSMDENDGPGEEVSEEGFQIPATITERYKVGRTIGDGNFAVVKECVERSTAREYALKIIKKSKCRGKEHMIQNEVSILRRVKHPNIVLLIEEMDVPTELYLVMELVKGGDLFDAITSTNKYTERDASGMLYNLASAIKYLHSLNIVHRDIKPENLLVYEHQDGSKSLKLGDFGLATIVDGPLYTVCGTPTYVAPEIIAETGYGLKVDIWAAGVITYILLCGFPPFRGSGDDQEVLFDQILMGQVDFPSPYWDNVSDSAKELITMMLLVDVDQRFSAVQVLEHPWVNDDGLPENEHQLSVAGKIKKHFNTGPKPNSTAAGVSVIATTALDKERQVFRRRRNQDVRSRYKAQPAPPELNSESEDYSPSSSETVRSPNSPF
Phosphatidylinositol 5-phosphate 4-kinase type-2 gamma (Homo sapiens), sequence (Q8TBX8 whole entry): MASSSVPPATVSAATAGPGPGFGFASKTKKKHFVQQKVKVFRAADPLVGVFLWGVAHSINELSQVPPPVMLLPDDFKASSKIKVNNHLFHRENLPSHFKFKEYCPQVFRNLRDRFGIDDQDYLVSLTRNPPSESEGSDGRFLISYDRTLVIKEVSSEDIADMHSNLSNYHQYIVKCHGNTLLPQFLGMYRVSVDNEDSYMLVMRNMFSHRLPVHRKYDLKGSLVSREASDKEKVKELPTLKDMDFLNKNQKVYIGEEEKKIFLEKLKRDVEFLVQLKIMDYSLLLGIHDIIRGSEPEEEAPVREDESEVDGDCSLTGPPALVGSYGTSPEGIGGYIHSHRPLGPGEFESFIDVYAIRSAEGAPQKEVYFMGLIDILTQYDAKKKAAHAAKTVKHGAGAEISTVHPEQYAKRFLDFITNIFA

C[C@H](NC(=O)Nc1cc2[nH]ncc2c(CO)n1)c1ccccn1 [ERKi-NC]
inactive: residual activity [1, 46] 100% | residual activity [2, 46] 100% | residual activity [3, 46] 100% | residual activity [4, 46] 100% | residual activity [5, 46] 100% | residual activity [6, 46] 100% | residual activity [7, 46] 95.4% | residual activity [8, 46] 100% | residual activity [9, 46] 99.9% | residual activity [10, 46] 100% | residual activity [11, 46] 71.1% | residual activity [12, 46] 100% | residual activity [13, 46] 74.7% | residual activity [14, 46] 86.6% | residual activity [15, 46] 100% | residual activity [16, 46] 100% | residual activity [17, 46] 88.7% | residual activity [18, 46] 100% | residual activity [19, 46] 100% | residual activity [20, 46] 100% | residual activity [21, 46] 100% | residual activity [22, 46] 81.5% | residual activity [23, 46] 95.1% | residual activity [24, 46] 100% | residual activity [25, 46] 94.1% | residual activity [26, 46] 100% | residual activity [27, 46] 85.5% | residual activity [28, 46] 82.2% | residual activity [29, 46] 85% | residual activity [30, 46] 100% | residual activity [31, 46] 78% | residual activity [32, 46] 71.9% | residual activity [33, 46] 100% | residual activity [34, 46] 100% | residual activity [35, 46] 100% | residual activity [36, 46] 93.1% | residual activity [37, 46] 95.4% | residual activity [38, 46] 80.7% | residual activity [39, 46] 58.3% | residual activity [40, 46] 100% | residual activity [41, 46] 97.4% | residual activity [42, 46] 100% | residual activity [43, 46] 100% | inhibition [44] 27.9% | inhibition [45] 16.8%

C[C@@H](NC(=O)Nc1cc2[nH]ncc2c(CO)n1)c1ccccc1 [ERKi]
inactive: residual activity [1, 47] 94.9% | residual activity [2, 47] 100% | residual activity [3, 47] 91.9% | residual activity [4, 47] 100% | residual activity [5, 47] 67.1% | residual activity [6, 47] 87.5% | residual activity [7, 47] 100% | residual activity [8, 47] 97.1% | residual activity [9, 47] 100% | residual activity [10, 47] 90.5% | residual activity [11, 47] 90.3% | residual activity [12, 47] 97.7% | residual activity [13, 47] 100% | residual activity [14, 47] 72.6% | residual activity [15, 47] 100% | residual activity [16, 47] 100% | residual activity [17, 47] 60.8% | residual activity [18, 47] 81.4% | residual activity [19, 47] 77.5% | residual activity [20, 47] 100% | residual activity [21, 47] 59.3% | residual activity [22, 47] 94.8% | residual activity [23, 47] 100% | residual activity [24, 47] 94.9% | residual activity [25, 47] 89.4% | residual activity [26, 47] 100% | residual activity [27, 47] 94.4% | residual activity [28, 47] 90.2% | residual activity [29, 47] 100% | residual activity [30, 47] 82.2% | residual activity [31, 47] 95.9% | residual activity [32, 47] 78.4% | residual activity [33, 47] 100% | residual activity [34, 47] 82.9% | residual activity [35, 47] 95% | residual activity [36, 47] 89.3% | residual activity [37, 47] 90.1% | residual activity [38, 47] 70% | residual activity [39, 47] 90% | residual activity [40, 47] 53.3% | residual activity [41, 47] 62.5% | residual activity [42, 47] 100% | residual activity [43, 47] 100% | inhibition [44] -2.24% | inhibition [45] 9.2%
